From PMC10002517, “Inhibition of Transglutaminase 2 as a Therapeutic Strategy in Celiac Disease—In Vitro Studies in Intestinal Cells and Duodenal Biopsies” (International Journal of Molecular Sciences, 2023)

What was measured:
[1] = target: T1, TG2 in the intestinal lamina propria (Homo sapiens, UniProt P21980); test: TG2 activity in cryosections of duodenal biopsies from CD patients (5BP, confocal microscopy); format: biochemical; details: 1 h before 5BP, mean ± SD, n = 6 patients
T1 construct: from tissue; host or cells: duodenal biopsies from celiac disease patients (unfixed 400 nm cryosections, lamina propria)
T1 sequence (P21980 1-687): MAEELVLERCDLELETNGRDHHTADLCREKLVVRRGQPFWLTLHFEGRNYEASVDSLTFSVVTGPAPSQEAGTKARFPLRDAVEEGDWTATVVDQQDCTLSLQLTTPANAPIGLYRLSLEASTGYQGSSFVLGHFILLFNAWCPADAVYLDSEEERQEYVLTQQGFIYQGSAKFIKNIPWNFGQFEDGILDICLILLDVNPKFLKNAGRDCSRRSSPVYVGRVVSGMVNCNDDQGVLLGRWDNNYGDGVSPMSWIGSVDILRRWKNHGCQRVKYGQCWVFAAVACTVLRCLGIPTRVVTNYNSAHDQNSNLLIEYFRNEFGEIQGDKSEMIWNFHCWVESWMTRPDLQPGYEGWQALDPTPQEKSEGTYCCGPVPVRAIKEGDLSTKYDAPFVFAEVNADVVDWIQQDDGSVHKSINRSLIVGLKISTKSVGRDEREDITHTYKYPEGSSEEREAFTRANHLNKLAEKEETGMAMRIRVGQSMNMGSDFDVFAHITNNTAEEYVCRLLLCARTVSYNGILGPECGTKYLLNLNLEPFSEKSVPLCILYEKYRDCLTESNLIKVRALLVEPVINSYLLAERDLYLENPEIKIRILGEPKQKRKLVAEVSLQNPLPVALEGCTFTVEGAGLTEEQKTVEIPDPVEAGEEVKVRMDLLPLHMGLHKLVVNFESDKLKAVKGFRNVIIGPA
Protocol: For immunofluorescence microscopic investigation of transglutaminase activity, only biopsies with minor macroscopic inflammatory signs were used. After endoscopy, biopsies were immediately washed three times in PBS and cryopreserved in polyvinylpyrrolidone sucrose at 4 °C overnight. Biopsies were mounted on specimen holders using Tissue-Tek O.C.T (Sakura Finetek, Staufen im Breisgau, Germany) compound and frozen in liquid nitrogen. For evaluation of transglutaminase activity by the post-embedding procedure, 400 nm cryosections were obtained using a cryo-ultramicrotome (Leica EM UC6, Leica, Wetzlar, Germany) and mounted on class cover slides. After three brief washes with PBS, tissue sections were incubated with the indicated concentrations of the inhibitors for 1 h in tris buffer. Then, the TG2 substrate 5BP was incubated for 1 h at 37 °C in tris buffer containing DTT at the indicated concentration. Slides were washed three times in PBS, fixed in 4% paraformaldehyde (10 min), permeabilized with 0.5% Triton (10 min) and incubated with blocking solution (0.1% cold water fish skin gelatin + 5% BSA + 5% goat serum, 10 min). Afterwards, a rabbit polyclonal antibody directed against human TG2 (Kan5, kindly provided by Dr T. Mothes, Institute of Laboratory Medicine, University Hospital Leipzig, Germany) was applied at 1:200 dilution in blocking solution overnight at 4 °C. After three washing steps (each 5 min) with PBS, Alexa Fluor-555-conjugated secondary antibody (goat-anti-rabbit, 1:200, Thermo Fisher Scientific) and Alexa Fluor-488-conjugated streptavidin (2 µg/mL, Thermo Fisher Scientific) were incubated at room temperature in the dark for 1 h. After three washes with PBS, samples were covered in ProLong Gold antifade mountant (Thermo Fisher Scientific) and sealed with clear nail polish. Sealed slides were stored in the dark at 4 °C until microscopy.
Imaging was done using a confocal laser scanning microscope (TE2000-E, Nikon, Langen, Germany) and a 60× Plan Apo (NA 1.41) immersion oil objective. The detailed acquisition settings and the corresponding macro (Image J [46]) for image processing can be accessed in the Supplementary Materials methods (S1). Five images per patient where quantified. For quantitation, mean fluorescence intensity of TG2 activity (488 nm channel) was normalized to TG2 expression (555 nm channel) within the intestinal lamina propria.

[2] = target: T2, extracellular TG2 on Caco-2 cells (Homo sapiens, UniProt P21980); test: Extracellular TG2 activity on confluent Caco-2 cell monolayers (5BP cross-linking); format: cell-based; details: n = 4; for reduction of TG2 activity on the cell surface: IFN-γ-stimulated Caco-2 cells, 5BP 3 h
T2 construct: endogenous in cells; host or cells: Caco-2 (differentiated; IFN-γ-stimulated in the monolayer assay)
T2 sequence (P21980 1-687): T1 sequence (P21980 1-687)
Protocol: The method was adapted from Yi et al.. To induce TG2 expression, Caco-2 cells were stimulated with IFN-γ 1000 IU/mL for 48 h. Then, cells were washed three times with warm PBS and incubated with the substrate 5BP for 3 h at 37 °C in 50 mM Tris and 1 mM EDTA (pH 7.5). The substances ERW1041, PX-12 and DTT were added to this solution when indicated. After incubation, cells were washed three times with PBS, fixed with 4% paraformaldehyde for 10 min and blocked with 5% BSA in PBS at 4 °C overnight. Then, cells were incubated at room temperature with streptavidin-Alexa488 (Thermo Scientific, 4 µg/mL) in 5% BSA in the dark for 1 h, followed by three washes with PBS. Fluorometric quantitation was conducted using a FLUOstar Optima microplate reader (BMG Labtech, filter settings: excitation 485 nm, emission 525 nm). Manual gain adjustment was performed, setting the well with the most intense signal as 95%. In all experiments, data were background subtracted against a control without 5BP substrate.

[3] = target: T3, TG2 in Caco-2 cell lysates (Homo sapiens, UniProt P21980); test: Transglutaminase activity in Caco-2 whole cell lysates (5BP cross-linking); format: biochemical; details: 10 µM inhibitor (b1); lysate of differentiated Caco-2 cells incubated with 5BP and inhibitor overnight; mean ± SD, n = 3
T3 construct: endogenous in cells; host or cells: Caco-2 (differentiated; IFN-γ-stimulated in the monolayer assay)
T3 sequence (P21980 1-687): T1 sequence (P21980 1-687)
Protocol: The method to investigate TG2 activity from whole cell lysates was adapted from Lin et al.. In brief, 20 µg protein per cavity on the 96-well plate were incubated in 50 mM Tris, 1 mM EDTA, 5 mM calcium chloride (pH 7.5) buffer in the presence of 500 µM 5BP (5-biotinamidopentylamine, Thermo Fisher Scientific, Langenselbold, Germany) for the indicated time. After incubation, the plate was washed three times with PBS + 0.05% Tween. After blocking with 5% BSA in PBS for 1 h, the plate was incubated with 2 µg/mL streptavidin-Alexa Fluor 488 (Thermo Fisher Scientific) in 5% BSA. After 3 washing steps with PBS + 0.05% Tween, fluorometric evaluation was performed using a Clariostar Plus (BMG Labtech) microplate reader (no well scan mode, excitation 488 nm, emission 535 nm, fixed gain: 2000).

tumor cell lines = details: 10 µM; cited from earlier work
Protocol: To further examine the applicability of both substances, we analyzed their effect on the viability of Caco-2 cells. […] In those studies, however, viability was determined in tumor cell lines and not in differentiated int ...

[4] = 100 µM inhibitor, untreated 0.94 ± 0.26 (ERW1041) or 0.91 ± 0.28 (PX-12)

Compound | TG2 activity normalized against TG2 expression in the lamina propria ([1]; 1 µM inhibitor, untreated 0.94 ± 0.26) | TG2 activity normalized against TG2 expression in the lamina propria [1, 4] | reduction of TG2 activity on the cell surface ([2]; 10 µM) | reduction of TG2 activity on the cell surface ([2]; 100 µM) | TG2 activity in Caco-2 cell lysates [3] | inhibition of TG2 on confluent Caco-2 monolayers ([2]; concentrations between 10 nM and 100 µM) | cytotoxicity (tumor cell lines)
O=C(NC[C@@H]1CC(Br)=NO1)[C@@H]1CCCN1C(=O)OCc1cnc2ccccc2c1 [ERW1041] | 0.58 ± 0.27 | 0.31 ± 0.17 | about 32% | ~70% | 45 ± 19% | – | –
CCC(C)SSc1ncc[nH]1 (stereo not drawn) [PX-12, 2-[(1-methylpropyl)dithio]-1H-imidazole] | – | 0.44 ± 0.21 | – | – | 12 ± 7% | did not observe any significant inhibition of TG2 | cytotoxic effects
